From publication PMC6616128, “Liquiritin, as a Natural Inhibitor of AKR1C1, Could Interfere With the Progesterone Metabolism” (Frontiers in Physiology, 2019) come the findings set out here.

This experiment addresses T1, AKR1C1 (Homo sapiens, UniProt Q04828).
T1 sequence (Q04828 1-323): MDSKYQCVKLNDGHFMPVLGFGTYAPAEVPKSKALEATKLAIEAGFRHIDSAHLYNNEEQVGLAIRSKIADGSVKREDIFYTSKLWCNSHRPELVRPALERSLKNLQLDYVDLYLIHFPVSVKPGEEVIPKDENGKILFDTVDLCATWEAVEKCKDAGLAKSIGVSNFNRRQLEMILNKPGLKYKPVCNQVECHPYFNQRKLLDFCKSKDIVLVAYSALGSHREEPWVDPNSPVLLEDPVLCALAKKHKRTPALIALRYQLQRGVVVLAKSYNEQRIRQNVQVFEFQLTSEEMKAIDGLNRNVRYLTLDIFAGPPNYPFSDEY
Description: Enzyme activity (NADPH) assay with s-tetralol, recombinant GST-AKR1C1.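 For all read-outs here: GST-fused AKR1C1 expressed in E. coli and purified by glutathione affinity, control wells received DMSO instead of compound, duplicate samples from a single experiment.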 Type of experiment: biochemical. Further details: made in house; host or cells: Escherichia coli JM109. The settings on record: for enzyme activity: CON 192.295568; for inhibition at 2 µM: read-out: % inhibition.

Where [1] appears, read: 2 μM compound, Supplementary Table 1.
Setting [2] is: 2 μM compound, Supplementary Table 1, CON 0.0122.
The mark [3] stands for this setting: 2 μM compound, Supplementary Table 1, CON = 1.
The mark [4] stands for this setting: 2 μM compound, Supplementary Table 1, CON = 1, read-out: ratio (activity relative to CON).

Like-named read-outs stand apart in the source and are kept apart here.

Description: GST-tagged recombinant AKR1C isoforms expressed JM109 was grown in Luria-Bertani broth (100 μg⋅ml-1 ampicillin, pH = 7.0) at 37°C with orbital shaking at 220 rpm. When cells achieved an OD600 nm between 0.4 and 0.6, 0.3 mM final concentration of isopropyl β-D-1-thiogalactopyranoside (IPTG) was added to the cultures and incubated for an additional 12 h at 25°C. Cells were harvested by centrifugation at 8000 g for 10 min, and the cell pellets were stored at -80°C for storage. The pellets were resuspended in 1 × PBS, pH = 7.4 and lysed by ultrasonication at ice-cold temperature using an UH-03 union instrument. The purification of glutathione-S-transferase (GST)-fusion AKR1C1, AKR1C2, and AKR1C3 were then carried out using ÄKTA systems from GE Healthcare as described in Handbook. The recombinant proteins were eluted in 50 mM Tris–HCl (pH = 8.0) with 20 mM reduced glutathione, fresh preparedly. Protein concentrations were determined using the Bradford protein assay kit. All proteins were aliquoted and stored at -80°C containing 20% glycerol.
To screen for the indicated inhibitor, the assay mixture was added with additional DMSO or 2 μM compounds. […] The inhibition patterns were determined by fitting initial velocity and inhibitor concentration into inhibition models using Graphpad Prism 6.0. All inhibition data were obtained from single experiments, with samples conducted in duplicate.
Firstly, we overexpressed recombinant human AKR1C in E. coli in the form of a GST-fusion protein, and then purified it by affinity chromatography on glutathione-Sepharose.
To screen for the inhibitors of AKR1C1, we developed a readily accessible indirect NADPH generating-based assay that can be used for high-throughput inhibitors screening. […] Wells were included containing enzyme and no inhibitor or 2 μM inhibitor.

The term % inhibition denotes the relative decrease from the control value, in per cent. On to `CC(C)=CCc1cc2c(cc1O)oc(=O)c1c3ccc(O)cc3oc21` [Psoralidin], for which, under setting [1], the “% inhibition” value is reported as 2.25% and the enzyme activity is on record as 187.9723 nmol/min/mg. Also, the slope under setting [2] stood at 0.0119. For the same compound, the “ratio (activity relative to CON)” value under setting [3] came out at 0.9775.
One may read the inhibition as the change of the read-out against control, counted positive when it falls. On to `COc1cc(C[C@H]2C(=O)OC[C@@H]2Cc2ccc(OC)c(OC)c2)ccc1O` [Arctigenin], for which the slope under setting [2] turned out to be 0.0129. Under setting [1], the enzyme activity is recorded as 203.0137 nmol/min/mg and the inhibition at 2 µM was -5.57%. The remaining activity at 2 µM under setting [4] is 106%.
In the case of `O=C([O-])C(O)Cc1ccc(O)c(O)c1.[Na+]` (stereo not shown) [Sodium Danshensu], under setting [1], the “% inhibition” value is given as 14% and the enzyme activity is 165.3652 nmol/min/mg. The slope under setting [2] is given as 0.0105. Besides, the “ratio (activity relative to CON)” value under setting [3] is reported as 0.86.
As for `COc1ccc(-c2cc(=O)c3c(OC)c(OC)c(OC)c(OC)c3o2)cc1` [Tangeretin], under setting [2], the slope is reported as 0.0133. Besides, under setting [1], the enzyme activity is on record as 209.3185 nmol/min/mg and the inhibition at 2 µM is -8.85%. Besides, under setting [4], the remaining activity at 2 µM was found to be 109%.
`O=c1c(O[C@@H]2O[C@H](CO)[C@@H](O)[C@H](O)[C@H]2O)c(-c2ccc(O)cc2)oc2cc(O)cc(O)c12` [Astragalin]: the slope under setting [2] is recorded as 0.007614. In addition, under setting [1], the enzyme activity amounted to 120.0159 nmol/min/mg and the inhibition at 2 µM worked out at 37.6%. Further, the remaining activity at 2 µM under setting [4] came out at 62.4%.
Turning to `COc1cc2c(=O)c(-c3ccc(O)cc3)coc2cc1O` [Glycitein], the slope under setting [2] is listed as 0.0086. Besides, under setting [1], the enzyme activity is given as 135.5526 nmol/min/mg and the inhibition at 2 µM is 29.5%. Moreover, the remaining activity at 2 µM under setting [4] was found to be 70.5%.
On to `COc1c(O[C@@H]2O[C@H](C(=O)O)[C@@H](O)[C@H](O)[C@H]2O)cc(O)c2c(=O)cc(-c3ccccc3)oc12` [Wogonoside], for which, under setting [1], the “% inhibition” value was -8.88% and the enzyme activity amounted to 209.3635 nmol/min/mg. Besides, under setting [2], the slope is reported as 0.0133. Moreover, under setting [3], the “ratio (activity relative to CON)” value is given as 1.0888.
Consider `C[C@H]1O[C@@H](O[C@H]2CC[C@@]3(C)[C@@H](CC[C@]4(C)[C@@H]3C=C[C@]35OC[C@@]6(CCC(C)(C)C[C@H]63)[C@H](O)C[C@]54C)[C@]2(C)CO)[C@H](O)[C@@H](O[C@@H]2O[C@H](CO)[C@@H](O)[C@H](O)[C@H]2O)[C@H]1O` [Saikosaponin D], for which, under setting [1], the “% inhibition” value came to 5.41% and the enzyme activity is reported as 181.8927 nmol/min/mg. Moreover, the slope under setting [2] is given as 0.0115. Moreover, the “ratio (activity relative to CON)” value under setting [3] is reported as 0.9459.
Turning to `O=C(O[C@@H]1Cc2c(O)cc(O)cc2O[C@@H]1c1cc(O)c(O)c(O)c1)c1cc(O)c(O)c(O)c1` [(−)-Epigallocatechin gallate], under setting [2], the slope came to 0.0121. Moreover, under setting [1], the enzyme activity is given as 191.3949 nmol/min/mg and the inhibition at 2 µM is 0.47%. Besides, the remaining activity at 2 µM under setting [4] worked out at 99.5%.
Consider Ginkgolide B, for which, under setting [1], the “% inhibition” value was found to be 34.68% and the enzyme activity was 125.6001 nmol/min/mg. Further, the slope under setting [2] came out at 0.007969. Further, the “ratio (activity relative to CON)” value under setting [3] is 0.6532.
On to `COc1c(O)cc(O)c2c(=O)cc(-c3ccccc3)oc12` [Wogonin], for which the remaining activity at 2 µM is, setting by setting: (2 μM compound, Figure 1A, read-out: % Enzyme Activity) 22.3%; under setting [4], 22.3%; (2 μM compound, text on Figure 1A, read-out: inhibitory effect over AKR1C1 enzyme activity (% inhibition)) 22.3%. For the same compound, the slope under setting [2] was determined as 0.00272. The enzyme activity under setting [1] is reported as 42.8725 nmol/min/mg. Besides, under setting [1], the inhibition at 2 µM came out at 77.7%.
`COc1ccc2c(c1)CC=C(CO)c1cc3c(cc1-2)OCO3` [Tenuifolin]: under setting [2], the slope was 0.007214. Under setting [1], the enzyme activity was 113.7111 nmol/min/mg and the inhibition at 2 µM was determined as 40.9%. For the same compound, under setting [4], the remaining activity at 2 µM came to 59.1%.
For `COc1ccc2cc1Oc1ccc(cc1)C[C@H]1c3cc(c(OC)cc3CCN1C)Oc1c(O)c(OC)cc3c1[C@H](C2)N(C)CC3` [Fangchinoline], in that order: 0.0139, 219.4962 nmol/min/mg, -14.2% and 114%.
As for `COc1cc(C(=O)OCCCCN=C(N)N)cc(OC)c1O.Cl` [Leonurine hydrochloride], under setting [1], the “% inhibition” value was determined as 40.77% and the enzyme activity was found to be 113.8912 nmol/min/mg. Moreover, the slope under setting [2] amounted to 0.007226. The “ratio (activity relative to CON)” value under setting [3] is 0.5923.
Consider `C[C@H]1O[C@@H](O[C@H]2CC[C@@]3(C)[C@@H](CC[C@]4(C)[C@@H]3C=C[C@]35OC[C@@]6(CCC(C)(C)C[C@H]63)[C@@H](O)C[C@]54C)[C@]2(C)CO)[C@H](O)[C@@H](O[C@@H]2O[C@H](CO)[C@@H](O)[C@H](O)[C@H]2O)[C@H]1O` [Saikosaponin A], for which the slope under setting [2] came out at 0.0115. In addition, under setting [1], the enzyme activity was found to be 181.6675 nmol/min/mg and the inhibition at 2 µM worked out at 5.53%. The remaining activity at 2 µM under setting [4] came out at 94.5%.
As for `COc1c2ccoc2cc2oc(=O)ccc12` [5-Methoxypsoralen], the slope under setting [2] was 0.0121. Besides, under setting [1], the enzyme activity stood at 190.1339 nmol/min/mg and the inhibition at 2 µM came to 1.12%. Moreover, the remaining activity at 2 µM under setting [4] came to 98.9%.
Consider `O=c1c(O[C@@H]2O[C@H](CO)[C@H](O)[C@H](O)[C@H]2O)c(-c2ccc(O)c(O)c2)oc2cc(O)cc(O)c12` [Hyperoside], for which, under setting [2], the slope was determined as 0.0123. Moreover, under setting [1], the enzyme activity is listed as 193.4665 nmol/min/mg and the inhibition at 2 µM is -0.61%. The remaining activity at 2 µM under setting [4] came out at 101%.
On to `O=c1ccc2cc3ccoc3cc2o1` [Psoralen], for which the slope under setting [2] worked out at 0.0116. Under setting [1], the enzyme activity is listed as 182.8834 nmol/min/mg and the inhibition at 2 µM turned out to be 4.89%. Under setting [4], the remaining activity at 2 µM stood at 95.1%.
Take `O=c1c(-c2ccc(O)cc2)coc2cc(O[C@@H]3O[C@H](CO)[C@@H](O)[C@H](O)[C@H]3O)ccc12` [Daidzin]: the slope under setting [2] is recorded as 0.013. Under setting [1], the enzyme activity came to 204.9952 nmol/min/mg and the inhibition at 2 µM is -6.6%. Moreover, under setting [4], the remaining activity at 2 µM turned out to be 107%.
The like results for `O=c1c2cc(O)c(O)cc2oc2cc(O)c([C@@H]3O[C@H](CO)[C@@H](O)[C@H](O)[C@H]3O)c(O)c12` [Mangiferin] were, in that order, 0.009429, 148.6125 nmol/min/mg, 22.7% and 77.3%.
Take `O=c1c(-c2ccc(O)cc2)coc2cc(O[C@@H]3O[C@H](CO)[C@@H](O)[C@H](O)[C@H]3O)cc(O)c12` [Genistin]: the slope under setting [2] came to 0.0129. Moreover, under setting [1], the enzyme activity came to 203.1488 nmol/min/mg and the inhibition at 2 µM was -5.64%. Also, the remaining activity at 2 µM under setting [4] came out at 106%.
In the case of Hydroxysafflor yellow A, the slope is given as 0.008806. Further, under setting [1], the “% inhibition” value was 27.82% and the enzyme activity is 138.7951 nmol/min/mg. The “ratio (activity relative to CON)” value under setting [3] was 0.7218.
`CC(C)=CCOc1c2ccoc2cc2oc(=O)ccc12` [Isoimperatorin]: under setting [2], the slope was found to be 0.0108. For the same compound, under setting [1], the enzyme activity was 170.1838 nmol/min/mg and the inhibition at 2 µM was 11.5%. Besides, the remaining activity at 2 µM under setting [4] worked out at 88.5%.
In the case of `Oc1cc(O)c2c(c1)O[C@H](c1cc(O)c(O)c(O)c1)[C@H](O)C2` [Epigallocatechin], the slope under setting [2] is 0.0131. For the same compound, under setting [1], the enzyme activity came to 206.6164 nmol/min/mg and the inhibition at 2 µM is -7.45%. In addition, the remaining activity at 2 µM under setting [4] was 107%.
For Schisantherin A, under setting [1], the “% inhibition” value was -8.57% and the enzyme activity amounted to 208.778 nmol/min/mg. The slope under setting [2] is 0.0132. Also, the “ratio (activity relative to CON)” value under setting [3] worked out at 1.0857.
Take `C[C@]12C[C@@H](O)[C@@H]3C[C@@]1(O[C@@H]1O[C@H](CO)[C@@H](O)[C@H](O)[C@H]1O)[C@@]3(COC(=O)c1ccccc1)C(=O)O2` [Albiflorin]: under setting [1], the “% inhibition” value is given as -5.5% and the enzyme activity is listed as 202.8786 nmol/min/mg. The slope under setting [2] came out at 0.0129. Further, under setting [3], the “ratio (activity relative to CON)” value is on record as 1.055.
Regarding `COc1cc(O)c2c(c1)C(=O)c1cc(C)cc(O)c1C2=O` [Emodin-3-methyl ether], under setting [1], the “% inhibition” value is reported as -4.57% and the enzyme activity came out at 201.0772 nmol/min/mg. Moreover, under setting [2], the slope came to 0.0128. The “ratio (activity relative to CON)” value under setting [3] is 1.0457.
As to `C[C@@H]1O[C@@H](O[C@@H]2[C@@H](O)[C@H](OCCc3ccc(O)c(O)c3)O[C@H](CO)[C@H]2OC(=O)/C=C/c2ccc(O)c(O)c2)[C@H](O)[C@H](O)[C@H]1O` [Acteoside], the slope under setting [2] is 0.0123. Besides, under setting [1], the enzyme activity came to 194.5022 nmol/min/mg and the inhibition at 2 µM is -1.15%. The remaining activity at 2 µM under setting [4] was found to be 101%.
For the compound `CC1(C)O[C@H]1COc1c2ccoc2cc2oc(=O)ccc12` [Oxypeucedanin], the slope under setting [2] was found to be 0.0122. For the same compound, under setting [1], the enzyme activity is 192.3856 nmol/min/mg and the inhibition at 2 µM was -0.05%. Moreover, the remaining activity at 2 µM under setting [4] is 100%.
